# Results reported in PubChem BioAssay (NCI).
#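 Each compound was tested at five concentrations against cells in 96-well plates for 48 hours. Definition used: TGI = concentration required for complete inhibition of growth.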
# Assays:
# Test in all cases: NCI-60 cell line screen, 48 h
# [1] = test system: DLD-1 colon
# [2] = test system: UACC-257 melanoma
# [3] = test system: SK-MEL-28 melanoma
# [4] = test system: DMS 114 small cell lung
# [5] = test system: A549 NSCLC
# [6] = test system: SNB-75 CNS
# [7] = test system: SR leukemia
# [8] = test system: IGROV1 ovarian
# [9] = test system: LOX IMVI melanoma
# [10] = test system: HL-60(TB) leukemia
# [11] = test system: MOLT-4 leukemia
# [12] = test system: K-562 leukemia
# [13] = test system: HCT-15 colon
# [14] = test system: 786-0 renal
# [15] = test system: M14 melanoma
# [16] = test system: HOP-62 NSCLC
# [17] = test system: HT29 colon
# [18] = test system: KM20L2 colon
# [19] = test system: HCC-2998 colon
# [20] = test system: NCI-H522 lung
# [21] = test system: HOP-18 NSCLC
# [22] = test system: CCRF-CEM leukemia
# [23] = test system: SF-268 CNS
# [24] = test system: SF-539 CNS
# [25] = test system: NCI-H23 lung
# [26] = test system: KM12 colon
# [27] = test system: SK-MEL-2 melanoma
# [28] = test system: ACHN renal
# [29] = test system: TK-10 renal
# [30] = test system: NCI-H226 lung
# [31] = test system: SF-295 CNS
# [32] = test system: MALME-3M melanoma
# [33] = test system: SNB-78 CNS
# [34] = test system: NCI-H460 lung
# [35] = test system: HCT-116 colon
# [36] = test system: EKVX NSCLC
# [37] = test system: DMS 273 small cell lung
# [38] = test system: CAKI-1 renal
# [39] = test system: A498 renal
# [40] = test system: LXFL 529 NSCLC
# [41] = test system: SN12C renal
# [42] = test system: SNB-19 CNS
# [43] = test system: COLO 205 colon
# [44] = test system: UO-31 renal
# [45] = test system: M19-MEL melanoma
# [46] = test system: OVCAR-8 ovarian
# [47] = test system: U251 CNS
# [48] = test system: RPMI-8226 leukemia
# [49] = test system: SK-MEL-5 melanoma
# [50] = test system: OVCAR-3 ovarian
# [51] = test system: RXF-631 renal
# [52] = test system: UACC-62 melanoma
# [53] = test system: SW-620 colon
# [54] = test system: SK-OV-3 ovarian
# [55] = test system: OVCAR-5 ovarian
# [56] = test system: RXF 393 renal
# [57] = test system: OVCAR-4 ovarian
# [58] = test system: DU-145 prostate
# [59] = test system: MDA-MB-231 breast
# [60] = test system: MCF7 breast
# [61] = test system: MDA-N
# [62] = test system: HOP-92 NSCLC
# [63] = test system: XF 498 CNS
smiles,measurement,setting,value
Cc1cc(C)c(C2[C@H]3C(=O)N(c4ccc(Cc5ccc(N6C(=O)[C@@H]7ON(c8ccccc8)C(c8c(C)cc(C)cc8C)[C@@H]7C6=O)cc5)cc4)C(=O)[C@H]3ON2c2ccccc2)c(C)c1 (stereo partly specified),TGI,[1],> 100 µM
same,TGI,[2],> 100 µM
same,TGI,[3],> 100 µM
same,TGI,[4],> 100 µM
same,TGI,[5],> 100 µM
same,TGI,[6],> 100 µM
same,TGI,[7],> 100 µM
same,TGI,[8],> 100 µM
same,TGI,[9],> 100 µM
same,TGI,[10],> 100 µM
same,TGI,[11],> 100 µM
same,TGI,[12],> 100 µM
same,TGI,[13],> 100 µM
same,TGI,[14],> 100 µM
same,TGI,[15],> 100 µM
same,TGI,[16],> 100 µM
same,TGI,[17],> 100 µM
same,TGI,[18],> 100 µM
same,TGI,[19],> 100 µM
same,TGI,[20],> 100 µM
same,TGI,[21],> 100 µM
same,TGI,[22],> 100 µM
same,TGI,[23],> 100 µM
same,TGI,[24],> 100 µM
same,TGI,[25],> 100 µM
same,TGI,[26],> 100 µM
same,TGI,[27],> 100 µM
same,TGI,[28],> 100 µM
same,TGI,[29],> 100 µM
same,TGI,[30],> 100 µM
same,TGI,[31],> 100 µM
same,TGI,[32],> 100 µM
same,TGI,[33],> 100 µM
same,TGI,[34],> 100 µM
same,TGI,[35],> 100 µM
same,TGI,[36],> 100 µM
same,TGI,[37],> 100 µM
same,TGI,[38],> 100 µM
same,TGI,[39],> 100 µM
same,TGI,[40],> 100 µM
same,TGI,[41],> 100 µM
same,TGI,[42],> 100 µM
same,TGI,[43],> 100 µM
same,TGI,[44],> 100 µM
same,TGI,[45],> 100 µM
same,TGI,[46],> 100 µM
same,TGI,[47],> 100 µM
same,TGI,[48],> 100 µM
same,TGI,[49],> 100 µM
same,TGI,[50],> 100 µM
same,TGI,[51],> 100 µM
same,TGI,[52],> 100 µM
same,TGI,[53],> 100 µM
same,TGI,[54],> 100 µM
same,TGI,[55],> 100 µM
same,TGI,[56],> 100 µM
same,TGI,[57],> 100 µM
COc1ccc2nc3ccccc3c(NCCCCCCN(CCCl)CCCl)c2c1,TGI,[1],2.2 µM
same,TGI,[2],> 22.9 µM
same,TGI,[3],76.1 µM
same,TGI,[5],6.06 µM
same,TGI,[6],0.0924 µM
same,TGI,[7],0.346 µM
same,TGI,[8],3.85 µM
same,TGI,[9],0.0394 µM
same,TGI,[10],0.592 µM
same,TGI,[12],> 18.5 µM
same,TGI,[15],0.514 µM
same,TGI,[16],2.42 µM
same,TGI,[58],1.47 µM
same,TGI,[17],1.28 µM
same,TGI,[18],2.07 µM
same,TGI,[23],1.18 µM
same,TGI,[26],1.14 µM
same,TGI,[29],23.8 µM
same,TGI,[30],1.53 µM
same,TGI,[31],1.01 µM
same,TGI,[33],2.13 µM
same,TGI,[59],3.37 µM
same,TGI,[34],0.853 µM
same,TGI,[35],1.39 µM
same,TGI,[36],4.22 µM
same,TGI,[37],0.206 µM
same,TGI,[38],0.197 µM
same,TGI,[60],0.157 µM
same,TGI,[40],1.72 µM
same,TGI,[42],3.45 µM
same,TGI,[43],0.107 µM
same,TGI,[44],0.513 µM
same,TGI,[45],5.12 µM
same,TGI,[47],1.57 µM
same,TGI,[49],1.64 µM
same,TGI,[50],3.14 µM
same,TGI,[51],1.96 µM
same,TGI,[53],0.472 µM
same,TGI,[61],0.656 µM
same,TGI,[54],2.74 µM
same,TGI,[55],1.9 µM
same,TGI,[57],1.05 µM
O=c1[nH]c2cc(Cl)ccc2nc1/C(=N\O)C(O)c1ccc(Cl)cc1Cl (stereo unspecified),TGI,[1],> 100 µM
same,TGI,[2],> 100 µM
same,TGI,[3],> 100 µM
same,TGI,[4],> 100 µM
same,TGI,[5],> 100 µM
same,TGI,[6],> 100 µM
same,TGI,[7],> 100 µM
same,TGI,[8],> 100 µM
same,TGI,[9],> 100 µM
same,TGI,[10],> 100 µM
same,TGI,[11],> 100 µM
same,TGI,[12],> 100 µM
same,TGI,[13],> 100 µM
same,TGI,[14],> 100 µM
same,TGI,[15],> 100 µM
same,TGI,[16],> 100 µM
same,TGI,[17],> 100 µM
same,TGI,[18],> 100 µM
same,TGI,[19],> 100 µM
same,TGI,[20],> 100 µM
same,TGI,[22],> 100 µM
same,TGI,[62],> 100 µM
same,TGI,[23],> 100 µM
same,TGI,[24],> 100 µM
same,TGI,[25],> 100 µM
same,TGI,[26],> 100 µM
same,TGI,[28],> 100 µM
same,TGI,[30],> 100 µM
same,TGI,[31],> 100 µM
same,TGI,[32],> 100 µM
same,TGI,[33],> 100 µM
same,TGI,[34],> 100 µM
same,TGI,[35],> 100 µM
same,TGI,[37],> 100 µM
same,TGI,[38],> 100 µM
same,TGI,[40],> 100 µM
same,TGI,[41],> 100 µM
same,TGI,[42],> 100 µM
same,TGI,[43],> 100 µM
same,TGI,[44],> 100 µM
same,TGI,[45],> 100 µM
same,TGI,[46],> 100 µM
same,TGI,[47],> 100 µM
same,TGI,[48],> 100 µM
same,TGI,[49],> 100 µM
same,TGI,[50],> 100 µM
same,TGI,[51],> 100 µM
same,TGI,[52],> 100 µM
same,TGI,[53],> 100 µM
same,TGI,[54],> 100 µM
same,TGI,[55],> 100 µM
same,TGI,[56],> 100 µM
same,TGI,[63],> 100 µM
same,TGI,[57],> 100 µM
CC12CCCCC1(C)C2Sc1ccccc1 (stereo unspecified),TGI,[1],> 100 µM
same,TGI,[2],> 100 µM
same,TGI,[3],> 100 µM
same,TGI,[4],> 77.8 µM
same,TGI,[5],> 100 µM
same,TGI,[6],> 100 µM
same,TGI,[8],> 100 µM
same,TGI,[9],> 61 µM
same,TGI,[10],36.9 µM
same,TGI,[11],41.6 µM
same,TGI,[12],19.9 µM
same,TGI,[13],> 100 µM
same,TGI,[14],> 100 µM
same,TGI,[15],> 100 µM
same,TGI,[16],> 100 µM
same,TGI,[17],> 100 µM
same,TGI,[18],> 100 µM
same,TGI,[19],> 100 µM
same,TGI,[20],> 69.3 µM
same,TGI,[21],> 100 µM
same,TGI,[22],44.4 µM
same,TGI,[62],97 µM
same,TGI,[23],> 100 µM
same,TGI,[24],> 100 µM
same,TGI,[25],> 100 µM
same,TGI,[26],> 100 µM
same,TGI,[27],50.7 µM
same,TGI,[28],> 100 µM
same,TGI,[29],> 100 µM
same,TGI,[30],> 100 µM
same,TGI,[31],> 100 µM
same,TGI,[32],> 100 µM
same,TGI,[33],> 80.1 µM
same,TGI,[34],> 100 µM
same,TGI,[35],> 100 µM
same,TGI,[36],> 96.8 µM
same,TGI,[37],> 100 µM
same,TGI,[38],> 100 µM
same,TGI,[39],98.2 µM
same,TGI,[40],> 100 µM
same,TGI,[41],> 100 µM
same,TGI,[42],> 100 µM
same,TGI,[43],> 100 µM
same,TGI,[44],> 100 µM
same,TGI,[45],> 94.5 µM
same,TGI,[46],> 100 µM
same,TGI,[47],> 67.2 µM
same,TGI,[48],40.3 µM
same,TGI,[49],> 63.5 µM
same,TGI,[50],> 100 µM
same,TGI,[51],> 100 µM
same,TGI,[52],> 100 µM
same,TGI,[53],> 100 µM
same,TGI,[54],> 100 µM
same,TGI,[55],> 100 µM
same,TGI,[56],> 70.3 µM
same,TGI,[63],66.3 µM
same,TGI,[57],> 100 µM
